# Results: patent US20050053560A1, “Use of a composition containing extracts of Vitis vinifera and lycopersicum for protecting the skin” (Pharmaton S.A, priority 2003, published 2005)
# System: normal human skin fibroblasts of the cell line NHDF
# Experiment: Fluoroscan process: antioxidant capacity of human skin fibroblasts
# Format: cell-based
# Details: NHDF cells, reference substance at 25 μM
# Description: For the present cytotoxicity tests and the Fluoroscan process normal human skin fibroblasts of the cell line NHDF were used as the test system, depending on their availability.
# The biologically active ingredients (standardised tomato extract, β-Carotene suspension, α-Tocopheryl acetate, standardized grape seed extract, ascorbic acid, selenium yeast) of Seresis® were first investigated in the above-mentioned amounts for possible cytotoxic effects and for their effect on the antioxidant capacity of human skin fibroblasts (NHDF). Apart from the pure mixture of active ingredients the entire contents of an active substance capsule were also used. In addition, a number of additives (oils, etc.) were also included in the test. Using two different in vitro skin models investigations were also carried out to see to what extent the protective effects of the active substances can be visualised. For this, the models were exposed to two different stressors (UV irradiation, activated immune cells).
smiles,measurement,value
Cc1c(C)c2c(c(C)c1O)CC[C@@](C)(CCC[C@H](C)CCC[C@H](C)CCCC(C)C)O2 [α-Tocopherol],antioxidant potential compared with the carrier control,120%
